# Measured values published in patent US9351971B2, “Substituted 2,2′-biphenazines for treating diseases” (Eutropics Pharmaceuticals, Inc., priority 2010, dated 2016).
# Entries after “also recorded” stand apart in the source; their conditions may differ.
# Experiments:
# Bcl-xL = biological target: T1, Bcl-xL (Homo sapiens, UniProt Q07817); assay: Fluorescence polarization assay, Bim BH3 peptide binding to GST-Bcl-xL; settings: Bim-BH3-FITC peptide, read-out: IC50, inhibition of Bim-BH3 peptide binding to Bcl-xL
# T1 construct: made in house; host or cells: E. coli
# Source text: A nineteen amino acid peptide, corresponding to the BH3 domain of Bim, with the sequence FITC-GGGIAQELRRIGDEFNAY (SEQ ID NO: 1) was labeled with the tluorophore FITC according to the manufacturer's instructions (Molecular Probes, Eugene, Oreg.). This sequence was identified as being able to bind to purified Bcl-xL protein (Sattler et al. (1997) Science 275(5302): 983-86) and to have biological activity in cells (Holinger et al. J. Biol. Chem. 274; 13298-1330).
# In addition, recombinant GST -Mcl-1 and GST-Bcl-xL fusion proteins were generated in E.coli and purified using glutathione-sepharose beads using conventional techniques known to those skilled in the fields of biochemistry and molecular biology, (methods for preparation are described in Strategies for Protein Purification and Characterization, Marshak, D, Kadonga, J, Burgess R, Knuth, M, Brennan, W, Sue-Hwa, L, CSH press, Cold Spring Harbor, N.Y.). Binding of the recombinant proteins to the fluorescent Bim BH3 domain was confirmed by titration of increasing concentrations of the recombinant proteins against a constant amount of labeled Bim peptide (16.65 nM). Quantitation of binding was accomplished by FP assay with mP measurements made on the Analyst-GT reader (Molecular Devices, Sunnyvale, Calif.).
# Further, the ability of compound A to disrupt the interaction between the fluorescent Bim BH3 peptide and the two fusion proteins was assessed using a fluorescence polarization assay. […]
# (§1) Experiments are performed using the fluorescence polarization assay as described in Example 2. […] The IC50 for blocking each BH3 peptide from Mcl-1 are assessed using FP, as described in Example 2.
# as §1
# [1] = system: NCI-H929 multiple myeloma cell line; assay: Cell viability MTS assay, NCI-H929; assay type: cell-based; settings: Homo sapiens, 48 hours, read-out: EC50, cell killing in NCI-H929
# Experimental: (§2) The lymphoid derived cell lines DHL-6 and DHL-10 were obtained from Anthony Letai of the Dana Father Cancer Research Institute, Boston, Mass. The […] derived cell line NCP-H929 was obtained irons, the NIH/NCI cell repository. AML-3 cells were obtained from Dr. Michael Andreef (MD Anderson Cancer Center, Houston, Tex.). Cells were grown in RPMI 1640 medium (GIBCO-BRL) supplemented with Pen-strep-glutamine (Gibco 10378) and 5% fetal bovine serum.
# (§3) Cells were expanded in tissue culture in appropriate media and then subcultured into 96-well plates at a seeding density of 20,000-40,000 cells per well, and cells were treated with one or more compounds that were titrated info appropriate medium with FCS. Cell lines were treated with compound A at concentrations ranging from 25 μM to 25 nM. The BH3-mimetic obatoclax (Nguyen M et al. (2007), Proc. Natl. Acad. Sci. USA 104:19512-19517) was also tested against the SUDHL-6, SUDHL-10, and NCI-H929 cell lines. Cells were treated for 48 hours and scored for viability using the MTS assay (Promega). Growth inhibition was indicated as a percentage of control cell growth. Growth was determined by measuring the A570 (control cells)—A570 (treated cells)/A570 (control cells). EC50 values were calculated using Graphpad Prizm software.
# [2] = system: SUDHL-6 lymphoid cell line; assay: Cell viability MTS assay, SUDHL-6; assay type: cell-based; settings: Homo sapiens, SU-DHL-6, 48 hours, read-out: EC50, cell killing in SUDHL-6
# Experimental: as §2, §3
# SUDHL-10 cell line = assay: Cell viability MTS assay, SUDHL-10 (Bax/Bak deficient); assay type: cell-based, human
# Experimental: as §2, §3
# [3] = system: mitochondria in semi-permeabilized SUDHL-6 cells; assay: In situ mitochondrial assay (cytochrome c release), SUDHL-6; assay type: cell-based; settings: SUDHL-6 (DHL-6), Bax/Bak functional, 10 uM
# Source text: (§4) The on-target activity of compound II-19 was validated. Changes in mitochondrial integrity were observed utilizing anti-cytochrome c conjugated to Alcxa488 (BD). When the mitochondria are intact, they retain cytochrome c and have bright, punctate staining with the antibody whereas cells with compromised mitochondrial integrity will lose cytochrome c and will not stain with the antibody. This can be observed by microscopy as well as measured by a shift in fluorescence on the FL1 channel of a flow cytometer.
# (§5) The selective response of mitochondria in semi-permeabilized cell lines to the compounds was observed. The assay was adapted from (Campos et al. (2006) Cytometry Part A. 69(A):515-523).
# (§6) Suspension cell lines SUDHL10 and SUDHL6 were grown in RPMI, washed once in 1xPBS and re-suspended at a concentration of 2e6/ml in assay buffer with 0.0025% Digitonin. Assay buffer; 300 mM Trehalose, 10 mM HEPES-KOH pH 7.7, 80 mM KCl, 1 mM EGTA, 1 mM EDTA, 0.1% BSA, 5 mM Succinate. Cells are incubated with test and control compounds at 10^6 cells/treatment for 1 hour at room temperature. […] Cytochrome c loss was measured by microscopy. At least 100 cells per treatment were counted and scored as positive for cytochrome c loss if they lacked staining. In both methods DMSO was calculated as 0% cytochrome c loss and the Bim response for DHL6 was used to determine 100% cytochrome c loss.
# [4] = system: mitochondria in semi-permeabilized SUDHL-10 cells; assay: In situ mitochondrial assay (cytochrome c release), SUDHL-10; assay type: cell-based; settings: SUDHL-10 (DHL-10), Bax/Bak deficient, 10 uM
# Source text: as §4, §5, §6
# T1 sequence (Q07817 whole entry): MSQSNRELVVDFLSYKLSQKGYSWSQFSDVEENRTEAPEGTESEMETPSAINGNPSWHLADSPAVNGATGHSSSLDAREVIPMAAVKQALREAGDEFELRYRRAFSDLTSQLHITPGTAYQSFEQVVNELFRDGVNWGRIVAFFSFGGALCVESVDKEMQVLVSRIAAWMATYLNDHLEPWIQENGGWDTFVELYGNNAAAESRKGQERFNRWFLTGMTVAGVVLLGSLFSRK
smiles,measurement,setting,value
"COC(=O)c1ccc(O)c2nc3c(C=O)c(O)c(-c4c(O)c(C=O)c5nc6c(O)ccc(C(=O)OC)c6nc5c4O)c(O)c3nc12 [II-19, dimethyl 4,4′-diformyl-1,1′,3,3′,6,6′-hexahydroxy-[2,2′-biphenazine]-9,9′-dicarboxylate]",IC50,Bcl-xL,0.015 µM
same,EC50,[1],8 µM
same,EC50,[2],3 µM
same,EC50,"SUDHL-10 cell line; Homo sapiens, SU-DHL10, 48 hours, MTS assay, Bax/Bak deficient cell line, read-out: EC50, cell killing in SUDHL-10",> 20 µM
same,activity against the Bax/Bak deficient cell line SUDHL-10 (in words),"SUDHL-10 cell line; cell killing, FIG. 4d",absence of activity
same,cytochrome c release from mitochondria,[3],causes release of cytochrome c; also recorded: direct activity
same,cytochrome c release from mitochondria,[4],but not BAX/BAK-deficient SUDHL-10 cell line; also recorded: lack of activity
